Columns and labels:
[1] = test system: MDR1; experiment: Apparent permeability in pig LLC-PK1 cells transfected with MDR1; type: ADME, cell-based, Sus scrofa
[2] = molecular target: T1, Beta-hexosaminidase subunit beta (Homo sapiens, UniProt P07686); experiment: Inhibition of human beta hexosaminidase assessed as inhibitory constant using 4-methylumbelliferyl N-acetyl-beta-D-glucosaminide dihydrate as substrate measured every 60 sec for 45 mins by fluorescence spectrophotometry
T1 sequence (P07686 whole entry): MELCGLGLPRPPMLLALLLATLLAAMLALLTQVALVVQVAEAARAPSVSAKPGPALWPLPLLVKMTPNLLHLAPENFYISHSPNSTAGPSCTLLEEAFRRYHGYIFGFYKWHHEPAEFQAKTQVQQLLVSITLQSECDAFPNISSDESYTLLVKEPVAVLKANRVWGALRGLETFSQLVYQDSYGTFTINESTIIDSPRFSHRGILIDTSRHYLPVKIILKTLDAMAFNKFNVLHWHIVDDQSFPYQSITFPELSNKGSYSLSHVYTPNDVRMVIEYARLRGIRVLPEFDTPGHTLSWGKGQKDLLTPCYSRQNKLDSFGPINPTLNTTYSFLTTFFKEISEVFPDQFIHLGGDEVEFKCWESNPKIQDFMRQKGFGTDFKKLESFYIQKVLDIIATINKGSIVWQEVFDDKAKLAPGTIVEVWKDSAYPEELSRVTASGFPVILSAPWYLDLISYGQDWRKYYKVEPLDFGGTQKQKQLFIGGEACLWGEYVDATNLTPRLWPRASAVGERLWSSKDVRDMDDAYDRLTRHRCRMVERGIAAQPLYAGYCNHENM

[3] = molecular target: Voltage-gated inwardly rectifying potassium channel KCNH2 (Homo sapiens, UniProt Q12809); experiment: Displacement of MK-0499 from human ERG
[4] = molecular target: Sodium channel protein type 5 subunit alpha (Homo sapiens, UniProt Q14524); experiment: Inhibition of Nav1.5 (unknown origin)
[5] = molecular target: Voltage-dependent L-type calcium channel subunit alpha-1C (Homo sapiens, UniProt Q13936); experiment: Inhibition of Cav1.2 (unknown origin)
[6] = molecular target: Cytochrome P450 3A4 (Homo sapiens, UniProt P08684); experiment: Inhibition of CYP3A4 (unknown origin); type: ADME
[7] = molecular target: Cytochrome P450 2D6 (Homo sapiens, UniProt P10635); experiment: Inhibition of CYP2D6 (unknown origin); type: ADME
[8] = molecular target: Cytochrome P450 2C9 (Homo sapiens, UniProt P11712); experiment: Inhibition of CYP2C9 (unknown origin); type: ADME
[9] = molecular target: T2, Nuclear receptor subfamily 1 group I member 2 (Homo sapiens, UniProt O75469); experiment: Activation of PXR (unknown origin) assessed as CYP3A4 induction
T2 sequence (O75469 whole entry): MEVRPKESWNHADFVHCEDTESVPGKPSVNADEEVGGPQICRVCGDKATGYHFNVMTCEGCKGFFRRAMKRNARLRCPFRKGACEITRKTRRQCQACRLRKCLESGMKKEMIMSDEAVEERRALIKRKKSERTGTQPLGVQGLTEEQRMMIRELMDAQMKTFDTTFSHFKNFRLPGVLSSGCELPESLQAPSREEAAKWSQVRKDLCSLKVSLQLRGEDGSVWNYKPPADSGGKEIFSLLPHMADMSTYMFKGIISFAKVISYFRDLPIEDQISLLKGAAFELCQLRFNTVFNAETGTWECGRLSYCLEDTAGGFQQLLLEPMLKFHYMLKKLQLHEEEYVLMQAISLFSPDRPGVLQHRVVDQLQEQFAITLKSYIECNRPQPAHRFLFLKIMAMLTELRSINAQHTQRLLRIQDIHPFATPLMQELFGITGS

[10] = Fraction unbound in human plasma at 2.5 uM by equilibrium dialysis; type: ADME, cell-free
[11] = molecular target: T3, Protein O-GlcNAcase (Homo sapiens, UniProt O60502); experiment: Inhibition of recombinant human OGA
T3 sequence (O60502 whole entry): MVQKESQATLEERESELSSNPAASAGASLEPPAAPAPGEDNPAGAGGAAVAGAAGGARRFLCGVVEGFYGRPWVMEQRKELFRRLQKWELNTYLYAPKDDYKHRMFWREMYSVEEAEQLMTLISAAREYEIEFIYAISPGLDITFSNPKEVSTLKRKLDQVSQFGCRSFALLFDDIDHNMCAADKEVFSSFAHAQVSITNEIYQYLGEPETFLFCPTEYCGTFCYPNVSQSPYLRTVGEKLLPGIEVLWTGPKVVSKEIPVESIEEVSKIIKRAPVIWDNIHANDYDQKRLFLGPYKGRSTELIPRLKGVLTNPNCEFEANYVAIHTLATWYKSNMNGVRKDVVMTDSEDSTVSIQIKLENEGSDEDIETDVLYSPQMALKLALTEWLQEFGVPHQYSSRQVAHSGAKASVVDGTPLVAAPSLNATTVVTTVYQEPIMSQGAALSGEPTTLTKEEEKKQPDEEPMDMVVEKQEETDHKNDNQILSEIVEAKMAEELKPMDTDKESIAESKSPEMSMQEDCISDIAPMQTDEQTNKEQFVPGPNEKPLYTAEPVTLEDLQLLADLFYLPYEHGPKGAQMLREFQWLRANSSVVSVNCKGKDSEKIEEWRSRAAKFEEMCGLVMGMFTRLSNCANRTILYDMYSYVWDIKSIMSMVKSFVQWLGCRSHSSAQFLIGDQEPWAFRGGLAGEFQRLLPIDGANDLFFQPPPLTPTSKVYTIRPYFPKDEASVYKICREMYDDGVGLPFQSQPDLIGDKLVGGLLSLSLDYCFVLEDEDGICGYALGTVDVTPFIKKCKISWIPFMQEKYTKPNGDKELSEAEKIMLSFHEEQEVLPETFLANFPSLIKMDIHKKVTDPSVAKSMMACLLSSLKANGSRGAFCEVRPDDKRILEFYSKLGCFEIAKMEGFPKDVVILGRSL

[12] = molecular target: T4, Protein O-GlcNAcase (Rattus norvegicus, UniProt Q8VIJ5); experiment: Inhibition of OGA in rat PC12 cells assessed as OGlcNAcylated protein level incubated for 24 hrs by ELISA; type: cell-based
T4 sequence (Q8VIJ5 whole entry): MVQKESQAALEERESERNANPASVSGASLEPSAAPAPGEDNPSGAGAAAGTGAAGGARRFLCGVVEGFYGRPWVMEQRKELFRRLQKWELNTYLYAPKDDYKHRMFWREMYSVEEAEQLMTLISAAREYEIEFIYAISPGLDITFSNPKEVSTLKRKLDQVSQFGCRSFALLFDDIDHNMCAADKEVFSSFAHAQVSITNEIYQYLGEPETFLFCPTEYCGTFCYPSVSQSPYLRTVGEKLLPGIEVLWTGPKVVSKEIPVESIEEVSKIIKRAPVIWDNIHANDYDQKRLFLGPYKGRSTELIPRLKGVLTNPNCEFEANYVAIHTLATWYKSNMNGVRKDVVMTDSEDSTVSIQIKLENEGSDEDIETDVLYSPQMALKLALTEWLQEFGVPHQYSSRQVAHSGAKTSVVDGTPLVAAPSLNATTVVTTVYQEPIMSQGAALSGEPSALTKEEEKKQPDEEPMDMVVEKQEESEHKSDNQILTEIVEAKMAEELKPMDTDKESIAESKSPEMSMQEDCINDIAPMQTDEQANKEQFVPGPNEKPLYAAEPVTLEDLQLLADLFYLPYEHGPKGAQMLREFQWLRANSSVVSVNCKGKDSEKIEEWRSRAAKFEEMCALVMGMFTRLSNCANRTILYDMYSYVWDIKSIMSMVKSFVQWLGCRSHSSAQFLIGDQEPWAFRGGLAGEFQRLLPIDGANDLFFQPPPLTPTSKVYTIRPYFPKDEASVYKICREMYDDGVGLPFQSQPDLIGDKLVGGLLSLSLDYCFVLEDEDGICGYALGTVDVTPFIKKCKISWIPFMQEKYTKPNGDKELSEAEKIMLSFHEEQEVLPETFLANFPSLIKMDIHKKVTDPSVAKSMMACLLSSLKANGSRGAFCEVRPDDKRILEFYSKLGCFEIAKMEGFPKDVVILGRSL

[13] = Fraction unbound in Wistar Han rat plasma at 2.5 uM by equilibrium dialysis; type: ADME, cell-free
[14] = AUCN in Wistar Han rat at 3 mg/kg, po; type: ADME, organism-based; conditions: in vivo
[15] = Clearance in Wistar Han rat at 2 mg/kg, iv; type: ADME, organism-based; conditions: in vivo
[16] = Half life in Wistar Han rat at 2 mg/kg, iv; type: ADME, organism-based; conditions: in vivo
[17] = Volume of distribution at steady state in Wistar Han rat at 2 mg/kg, iv or 3 mg/kg, po; type: ADME, organism-based; conditions: in vivo, read-out: Vdss
[18] = Oral bioavailability in Wistar Han rat at 3 mg/kg; type: ADME, organism-based; conditions: in vivo
[19] = test system: Rattus norvegicus; experiment: Elevation of O-protein in rat brain at 3 mg/kg, po measured after 8 hrs relative to control; type: functional
[20] = Drug uptake in rat brain at 3 mg/kg, po measured after 8 hrs; type: ADME, organism-based; conditions: in vivo
[21] = Ratio of drug uptake in rat brain to plasma at 3 mg/kg, po measured after 8 hrs; type: ADME, organism-based; conditions: read-out: BPR
[22] = AUCN in Wistar Han rat at 10 mg/kg, po; type: ADME, organism-based; conditions: in vivo
[23] = Volume of distribution at steady state in Wistar Han rat at 2 mg/kg, iv or 10 mg/kg, po; type: ADME, organism-based; conditions: in vivo, read-out: Vdss
[24] = Oral bioavailability in Wistar Han rat at 10 mg/kg; type: ADME, organism-based; conditions: in vivo
[25] = test system: Rattus norvegicus; experiment: Elevation of O-protein in rat brain at 3 mg/kg, po measured after 24 hrs relative to control; type: functional
[26] = Drug uptake in rat brain at 3 mg/kg, po measured after 24 hrs; type: ADME, organism-based; conditions: in vivo
[27] = Ratio of drug uptake in rat brain to plasma at 3 mg/kg, po measured after 24 hrs; type: ADME, organism-based; conditions: read-out: BPR

Sequence of Voltage-dependent L-type calcium channel subunit alpha-1C (Q13936 whole entry): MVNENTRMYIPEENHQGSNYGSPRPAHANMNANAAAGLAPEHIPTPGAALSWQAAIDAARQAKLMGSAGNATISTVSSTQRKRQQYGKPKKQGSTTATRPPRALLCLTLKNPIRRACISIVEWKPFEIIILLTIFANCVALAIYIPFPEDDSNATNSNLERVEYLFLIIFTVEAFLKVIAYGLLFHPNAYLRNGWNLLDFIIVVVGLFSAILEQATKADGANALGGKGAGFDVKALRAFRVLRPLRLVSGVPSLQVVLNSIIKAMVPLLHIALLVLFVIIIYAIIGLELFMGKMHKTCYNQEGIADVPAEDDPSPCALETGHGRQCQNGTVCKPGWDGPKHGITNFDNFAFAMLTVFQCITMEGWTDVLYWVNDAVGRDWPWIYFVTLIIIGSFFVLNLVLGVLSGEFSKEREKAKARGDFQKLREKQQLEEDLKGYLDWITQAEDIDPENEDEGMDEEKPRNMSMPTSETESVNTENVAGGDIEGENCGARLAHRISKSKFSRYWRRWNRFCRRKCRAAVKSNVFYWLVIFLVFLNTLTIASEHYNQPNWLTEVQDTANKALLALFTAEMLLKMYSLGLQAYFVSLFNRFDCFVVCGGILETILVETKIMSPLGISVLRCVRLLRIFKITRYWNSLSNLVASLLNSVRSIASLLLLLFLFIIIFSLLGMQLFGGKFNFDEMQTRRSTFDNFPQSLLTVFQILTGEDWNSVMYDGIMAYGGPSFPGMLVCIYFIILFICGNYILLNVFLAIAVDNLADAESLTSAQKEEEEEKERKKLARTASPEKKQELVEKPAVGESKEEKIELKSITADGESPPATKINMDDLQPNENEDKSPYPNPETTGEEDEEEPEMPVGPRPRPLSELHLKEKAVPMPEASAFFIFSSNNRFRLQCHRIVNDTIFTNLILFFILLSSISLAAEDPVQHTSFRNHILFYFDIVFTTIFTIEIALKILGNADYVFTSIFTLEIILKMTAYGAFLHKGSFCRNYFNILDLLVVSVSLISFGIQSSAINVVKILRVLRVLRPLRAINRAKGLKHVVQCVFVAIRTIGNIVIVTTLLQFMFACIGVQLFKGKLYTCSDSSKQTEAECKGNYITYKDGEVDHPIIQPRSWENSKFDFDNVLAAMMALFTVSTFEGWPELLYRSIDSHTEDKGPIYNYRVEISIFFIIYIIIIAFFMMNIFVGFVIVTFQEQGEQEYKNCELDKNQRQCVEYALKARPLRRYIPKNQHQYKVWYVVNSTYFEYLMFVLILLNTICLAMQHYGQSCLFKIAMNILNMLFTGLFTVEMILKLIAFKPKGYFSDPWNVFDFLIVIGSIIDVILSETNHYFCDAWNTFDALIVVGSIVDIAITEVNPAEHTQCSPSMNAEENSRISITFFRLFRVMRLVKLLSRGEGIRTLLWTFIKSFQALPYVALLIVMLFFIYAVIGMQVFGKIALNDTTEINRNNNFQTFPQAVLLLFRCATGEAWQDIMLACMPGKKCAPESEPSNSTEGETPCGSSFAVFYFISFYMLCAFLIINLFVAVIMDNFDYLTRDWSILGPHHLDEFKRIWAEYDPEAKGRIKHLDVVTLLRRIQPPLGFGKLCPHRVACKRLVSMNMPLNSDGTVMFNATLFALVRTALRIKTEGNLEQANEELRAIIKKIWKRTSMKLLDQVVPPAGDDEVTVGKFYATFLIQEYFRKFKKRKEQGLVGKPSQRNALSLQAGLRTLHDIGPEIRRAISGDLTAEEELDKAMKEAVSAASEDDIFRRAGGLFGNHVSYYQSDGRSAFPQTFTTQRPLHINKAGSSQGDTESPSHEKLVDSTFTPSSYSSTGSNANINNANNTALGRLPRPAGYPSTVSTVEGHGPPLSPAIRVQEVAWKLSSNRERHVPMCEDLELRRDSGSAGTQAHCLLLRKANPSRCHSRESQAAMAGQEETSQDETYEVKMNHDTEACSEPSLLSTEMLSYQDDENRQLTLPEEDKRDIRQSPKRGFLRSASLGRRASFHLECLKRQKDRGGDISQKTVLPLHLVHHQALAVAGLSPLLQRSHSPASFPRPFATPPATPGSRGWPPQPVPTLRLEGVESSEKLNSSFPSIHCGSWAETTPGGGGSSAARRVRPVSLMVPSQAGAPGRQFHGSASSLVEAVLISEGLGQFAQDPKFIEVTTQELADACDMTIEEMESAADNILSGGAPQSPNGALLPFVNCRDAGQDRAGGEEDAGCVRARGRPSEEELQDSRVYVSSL
Sequence of Cytochrome P450 2C9 (P11712 whole entry): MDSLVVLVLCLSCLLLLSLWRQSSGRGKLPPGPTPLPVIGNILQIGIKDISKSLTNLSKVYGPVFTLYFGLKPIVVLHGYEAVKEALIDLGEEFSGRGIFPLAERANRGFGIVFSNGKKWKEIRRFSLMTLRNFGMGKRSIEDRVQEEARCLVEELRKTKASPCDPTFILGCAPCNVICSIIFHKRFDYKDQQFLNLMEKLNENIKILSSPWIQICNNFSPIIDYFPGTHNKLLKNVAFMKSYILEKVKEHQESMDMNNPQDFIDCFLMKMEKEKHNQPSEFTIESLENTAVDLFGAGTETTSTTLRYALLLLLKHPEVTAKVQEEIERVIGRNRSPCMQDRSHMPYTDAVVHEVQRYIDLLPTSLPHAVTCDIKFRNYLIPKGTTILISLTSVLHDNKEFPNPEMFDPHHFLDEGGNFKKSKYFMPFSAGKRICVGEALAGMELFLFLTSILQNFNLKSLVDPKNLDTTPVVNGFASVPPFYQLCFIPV
Sequence of Voltage-gated inwardly rectifying potassium channel KCNH2 (Q12809 whole entry): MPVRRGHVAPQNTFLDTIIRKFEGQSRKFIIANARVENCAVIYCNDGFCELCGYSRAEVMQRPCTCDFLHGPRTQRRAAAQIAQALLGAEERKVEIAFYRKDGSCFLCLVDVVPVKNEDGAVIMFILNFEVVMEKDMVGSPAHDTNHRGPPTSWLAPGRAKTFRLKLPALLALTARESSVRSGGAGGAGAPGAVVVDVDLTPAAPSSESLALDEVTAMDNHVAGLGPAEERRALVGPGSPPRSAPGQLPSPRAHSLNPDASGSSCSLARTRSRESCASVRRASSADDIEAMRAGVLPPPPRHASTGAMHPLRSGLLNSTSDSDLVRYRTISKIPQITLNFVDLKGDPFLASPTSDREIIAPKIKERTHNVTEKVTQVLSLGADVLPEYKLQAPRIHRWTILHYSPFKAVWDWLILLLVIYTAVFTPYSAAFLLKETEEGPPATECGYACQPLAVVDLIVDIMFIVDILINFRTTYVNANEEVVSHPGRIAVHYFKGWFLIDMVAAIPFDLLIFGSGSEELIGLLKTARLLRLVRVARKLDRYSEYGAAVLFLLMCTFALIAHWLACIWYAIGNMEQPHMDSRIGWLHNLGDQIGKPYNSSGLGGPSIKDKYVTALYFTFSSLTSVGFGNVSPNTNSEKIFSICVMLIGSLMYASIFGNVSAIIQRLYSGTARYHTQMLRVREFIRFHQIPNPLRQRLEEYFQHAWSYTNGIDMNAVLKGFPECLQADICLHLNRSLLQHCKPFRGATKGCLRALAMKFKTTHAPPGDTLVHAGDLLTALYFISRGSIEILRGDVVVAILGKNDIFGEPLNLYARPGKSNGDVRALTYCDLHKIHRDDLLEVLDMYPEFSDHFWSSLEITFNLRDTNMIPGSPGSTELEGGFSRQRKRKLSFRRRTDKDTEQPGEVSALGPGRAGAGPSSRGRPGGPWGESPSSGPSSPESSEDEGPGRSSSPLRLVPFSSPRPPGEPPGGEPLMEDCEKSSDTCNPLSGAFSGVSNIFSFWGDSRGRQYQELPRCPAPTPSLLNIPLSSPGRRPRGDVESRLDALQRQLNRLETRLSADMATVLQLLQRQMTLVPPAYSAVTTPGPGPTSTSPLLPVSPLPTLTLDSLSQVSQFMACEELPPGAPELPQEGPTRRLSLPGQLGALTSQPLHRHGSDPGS
Sequence of Cytochrome P450 2D6 (P10635 whole entry): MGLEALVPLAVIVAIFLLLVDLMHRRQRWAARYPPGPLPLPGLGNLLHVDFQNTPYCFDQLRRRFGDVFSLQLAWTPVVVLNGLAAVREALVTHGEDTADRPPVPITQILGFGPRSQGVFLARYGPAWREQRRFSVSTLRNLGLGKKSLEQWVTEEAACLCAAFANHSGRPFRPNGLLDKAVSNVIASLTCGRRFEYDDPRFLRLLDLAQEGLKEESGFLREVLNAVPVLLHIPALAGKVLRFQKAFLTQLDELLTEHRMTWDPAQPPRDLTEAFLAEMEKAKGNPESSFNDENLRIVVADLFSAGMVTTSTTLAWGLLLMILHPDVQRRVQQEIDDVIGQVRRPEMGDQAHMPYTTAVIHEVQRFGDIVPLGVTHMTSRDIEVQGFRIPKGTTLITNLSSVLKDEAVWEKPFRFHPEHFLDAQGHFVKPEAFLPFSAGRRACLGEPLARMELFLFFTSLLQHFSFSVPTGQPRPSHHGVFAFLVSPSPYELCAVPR
Sequence of Cytochrome P450 3A4 (P08684 whole entry): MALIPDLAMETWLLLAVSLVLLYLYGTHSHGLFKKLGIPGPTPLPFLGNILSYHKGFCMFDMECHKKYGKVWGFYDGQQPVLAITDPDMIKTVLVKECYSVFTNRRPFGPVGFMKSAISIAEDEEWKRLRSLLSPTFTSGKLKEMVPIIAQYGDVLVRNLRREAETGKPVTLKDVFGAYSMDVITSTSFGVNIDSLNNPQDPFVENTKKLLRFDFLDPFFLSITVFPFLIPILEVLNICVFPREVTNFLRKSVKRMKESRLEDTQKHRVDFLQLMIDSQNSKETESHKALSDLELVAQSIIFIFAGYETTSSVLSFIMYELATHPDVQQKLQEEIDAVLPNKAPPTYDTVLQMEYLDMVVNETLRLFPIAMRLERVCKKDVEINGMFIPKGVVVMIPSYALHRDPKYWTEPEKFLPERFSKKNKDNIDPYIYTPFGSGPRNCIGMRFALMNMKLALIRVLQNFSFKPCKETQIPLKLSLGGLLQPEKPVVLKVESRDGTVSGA

Row | Papp [1] [×10⁻⁶ cm/s] | Ki [2] [µM] | IC50 [6] [µM] | IC50 [7] [µM] | IC50 [8] [µM] | EC50 [9] [µM] | Ki [11] [µM] | EC50 [12] [µM] | clearance [15] [mL/min/kg] | half-life [16] [h] | AUC/dose [22] [µM·kg·h/mg] | Vd [23] [L/kg] | bioavailability [24] [%] | SMILES | IC50 [3] [µM] | IC50 [4] [µM] | IC50 [5] [µM] | also measured
1 | 2.6 | > 10 | > 50 | > 50 | > 50 | > 30 |  |  |  |  |  |  |  | CCNC1=N[C@@H]2C[C@H](O)[C@@H](CO)O[C@@H]2S1 | > 30 | > 30 | > 30 | 
2 | 5.7 | 1.3 |  |  |  |  | 0.00036 | 0.00171 | 27.1 | 1.48 |  |  |  | CNC1=N[C@@H]2[C@@H](O)[C@H](O)[C@@H](C(F)F)O[C@@H]2S1 |  |  |  | fraction unbound at 2.5 µM [10]: 0.77; fraction unbound at 2.5 µM [13]: 0.83; AUC/dose [14]: 2.54 µM·kg·h/mg; Vd [17]: 1.72 L/kg; bioavailability [18]: 93.8%; fold change (FC) [19]: 2; Drug uptake [20]: 0.133 nmol/g; Kp at 8 h [21]: 1.33
3 | 7 | > 10 | > 50 | > 50 | > 50 | > 30 | > 3 |  |  |  |  |  |  | CCNC1=N[C@H]2[C@H](O[C@H](CO)C[C@@H]2O)S1 | > 30 | > 30 | > 30 | 
4 |  | > 10 |  |  |  |  | 0.0094 | 0.0331 | 39 | 1.06 | 2.53 | 2.8 | 129 | CNC1=N[C@@H]2C[C@H](O)[C@@H](CO)O[C@@H]2S1 |  |  |  | 
5 | 2.7 | > 10 | > 50 | > 50 | > 50 | > 30 | 0.029 | 0.443 | 31.9 | 2.4 | 2.16 | 2 | 104 | CCNC1=N[C@@H]2[C@@H](F)[C@H](O)[C@@H](CO)O[C@@H]2S1 | > 30 | > 30 | > 30 | 
6 | 17 | > 10 |  |  |  |  | 0.014 | 0.119 |  |  |  |  | 75.3 | CCCNC1=N[C@@H]2[C@@H](O)[C@H](O)[C@@H](CF)O[C@@H]2S1 |  |  |  | 
7 |  | > 10 | > 50 | > 50 | > 50 | > 30 | > 3 |  |  |  |  |  |  | CCNC1=N[C@H]2[C@H](O[C@H](CO)C(F)[C@@H]2O)S1 (stereo partly drawn) | > 30 | > 30 | > 30 | 
8 | 14 | > 10 |  |  |  |  | 0.0053 | 0.0414 | 72.6 | 3.89 |  |  |  | CCCNC1=N[C@@H]2[C@@H](O)[C@H](O)[C@@H](C(F)F)O[C@@H]2S1 |  |  |  | AUC/dose [14]: 0.376 µM·kg·h/mg; Vd [17]: 5.99 L/kg; bioavailability [18]: 44.8%; fold change (FC) [19]: 1.81; Drug uptake [20]: 0.193 nmol/g; Kp at 8 h [21]: 8.81
9 | 6.8 | 1.6 |  |  |  |  | 0.009 | 0.177 | 43.7 |  |  |  |  | CN(C)C1=N[C@@H]2[C@@H](O)[C@H](O)[C@@H](CF)O[C@@H]2S1 |  |  |  | fraction unbound at 2.5 µM [10]: > 0.99; fraction unbound at 2.5 µM [13]: > 0.99; AUC/dose [14]: 0.954 µM·kg·h/mg; Vd [17]: 10.5 L/kg; bioavailability [18]: 75.3%; fold change (FC) [19]: 2.33; fold change (FC) [25]: 1.77; Drug uptake [20]: 0.222 nmol/g; Drug uptake [26]: 0.038 nmol/g; Kp at 8 h [21]: 0.9; Kp at 24 h [27]: 1.53
10 | 1.1 | 3.6 | > 50 | > 50 | > 50 | > 30 | 0.0055 | 0.0367 | 66.3 | 1.89 | 0.598 | 5.39 | 62 | CCN(C)C1=N[C@@H]2[C@@H](O)[C@H](O)[C@@H](CO)O[C@@H]2S1 | > 30 | > 30 | > 30 | 
11 |  | > 10 |  |  |  |  | 0.0033 | 0.028 | 53.6 | 1.63 | 1.15 | 2.88 | 96 | OC[C@H]1O[C@@H]2SC(N3CCC3)=N[C@@H]2[C@@H](O)[C@@H]1O |  |  |  | 
